Structures are written as SMILES.

T1 sequence (P42345 1362-2549): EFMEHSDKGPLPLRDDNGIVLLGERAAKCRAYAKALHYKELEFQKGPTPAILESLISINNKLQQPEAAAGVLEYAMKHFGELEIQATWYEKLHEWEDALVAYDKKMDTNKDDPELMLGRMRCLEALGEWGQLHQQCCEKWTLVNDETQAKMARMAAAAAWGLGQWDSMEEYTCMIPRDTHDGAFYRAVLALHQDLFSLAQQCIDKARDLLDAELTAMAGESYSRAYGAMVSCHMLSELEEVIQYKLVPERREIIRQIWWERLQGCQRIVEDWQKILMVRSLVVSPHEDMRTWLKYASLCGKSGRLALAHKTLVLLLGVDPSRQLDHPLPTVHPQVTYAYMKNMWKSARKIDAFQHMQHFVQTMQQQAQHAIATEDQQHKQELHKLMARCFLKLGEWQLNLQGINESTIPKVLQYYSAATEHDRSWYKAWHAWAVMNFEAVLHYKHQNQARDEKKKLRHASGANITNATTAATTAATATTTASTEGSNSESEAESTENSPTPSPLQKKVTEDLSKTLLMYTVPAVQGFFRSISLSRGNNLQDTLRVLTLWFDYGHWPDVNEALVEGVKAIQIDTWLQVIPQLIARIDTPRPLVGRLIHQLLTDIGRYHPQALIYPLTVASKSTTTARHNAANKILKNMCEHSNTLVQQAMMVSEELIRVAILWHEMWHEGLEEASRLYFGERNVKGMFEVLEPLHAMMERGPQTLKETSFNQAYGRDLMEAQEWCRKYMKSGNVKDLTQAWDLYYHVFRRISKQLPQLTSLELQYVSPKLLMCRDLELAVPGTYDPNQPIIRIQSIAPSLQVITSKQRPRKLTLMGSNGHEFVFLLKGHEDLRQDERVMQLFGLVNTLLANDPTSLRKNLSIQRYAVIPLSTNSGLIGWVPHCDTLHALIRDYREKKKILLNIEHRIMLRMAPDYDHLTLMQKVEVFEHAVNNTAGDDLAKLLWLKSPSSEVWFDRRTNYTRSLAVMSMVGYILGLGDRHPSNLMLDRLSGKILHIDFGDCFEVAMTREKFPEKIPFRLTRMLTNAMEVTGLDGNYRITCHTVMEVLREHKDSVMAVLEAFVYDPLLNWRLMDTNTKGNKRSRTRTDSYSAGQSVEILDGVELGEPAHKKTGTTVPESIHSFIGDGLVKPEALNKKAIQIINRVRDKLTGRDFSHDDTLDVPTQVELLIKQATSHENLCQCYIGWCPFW

The first experiment addresses T1, mTOR (Homo sapiens, UniProt P42345).
T1 construct: FLAG; made in house
Kind of experiment: In Vitro mTOR Kinase Assay (Echo), Test (a)(ii). It counts as biochemical. Conditions: read-out: mTOR Kinase Assay (Echo). A digest of the protocol:
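Compounds were acoustically dispensed, then incubated with FLAG-tagged mTOR (1362-2549) for 2 hours at room temperature. Reactions were quenched with EDTA plus detection antibody and AlphaScreen beads and left overnight in the dark before reading. Loss of phospho-T389 signal gave IC50 values.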
On to `CC(C)S(=O)(=O)C1(c2cc(N3CCOC[C@@H]3C)nc(-c3ccc(NC(=O)NC(C)(C)CO)cc3)n2)CC1` [Example 7f, 3-(1-hydroxy-2-methyl-propan-2-yl)-1-[4-[4-[(3S)-3-methylmorpholin-4-yl]-6-(1-propan-2-ylsulfonylcyclopropyl)pyrimidin-2-yl]phenyl]urea], for which the IC50 stood at 9.15 nM.
With `COc1ccc(NC(=O)Nc2ccc(-c3nc(N4CCOC[C@@H]4C)cc(C4(S(C)(=O)=O)CC4)n3)cc2)cc1` [Example 2t, 3-(4-methoxyphenyl)-1-[4-[4-[(3S)-3-methylmorpholin-4-yl]-6-(1-methylsulfonylcyclopropyl)pyrimidin-2-yl]phenyl]urea], the IC50 was found to be 1.45 nM.
On the same count and under the same terms, in the case of `C[C@H]1COCCN1c1cc(C2(S(C)(=O)=O)CCCC2)nc(-c2ccc(NC(=O)Nc3cnn(C)c3)cc2)n1` [Example 4m, 1-[4-[4-[(3S)-3-methylmorpholin-4-yl]-6-(1-methylsulfonylcyclopentyl)pyrimidin-2-yl]phenyl]-3-(1-methylpyrazol-4-yl)urea] it was 2.45 nM; in that of `CCS(=O)(=O)C1(c2cc(N3CCOC[C@@H]3C)nc(-c3ccc(NC(=O)NCCCO)cc3)n2)CC1` [Example 11j, 1-[4-[4-(1-ethylsulfonylcyclopropyl)-6-[(3S)-3-methylmorpholin-4-yl]pyrimidin-2-yl]phenyl]-3-(3-hydroxypropyl)urea], 12.2 nM.
As for `CCNC(=O)Nc1ccc(-c2nc(N3CCOC[C@@H]3C)cc(C3(S(=O)(=O)c4ccncc4)CC3)n2)cc1` [Example 6d, 3-ethyl-1-[4-[4-[(3S)-3-methylmorpholin-4-yl]-6-(1-pyridin-4-ylsulfonylcyclopropyl)pyrimidin-2-yl]phenyl]urea], the IC50 was 0.874 nM.
Still for that read-out and setting: the figure for `C[C@H]1COCCN1c1cc(C2(S(=O)(=O)c3ccncc3)CC2)nc(-c2ccc(NC(=O)NC3CCC3)cc2)n1` [Example 6, 3-Cyclobutyl-1-[4-[4-[(3S)-3-methylmorpholin-4-yl]-6-(1-pyridin-4-ylsulfonylcyclopropyl)pyrimidin-2-yl]phenyl]urea] is 1 nM.

The experiment is the same for the next values; noted with them: table of enzyme assay Test (a)(ii); read-out: Test (a)(ii) IC50.
For `O=C(Nc1ccc(-c2nc(N3CCOCC3)cc(C3(S(=O)(=O)c4ccc(F)cc4)CC3)n2)cc1)Nc1ncns1` [Example 36an, 1-[4-[4-[1-(4-fluorophenyl)sulfonylcyclopropyl]-6-morpholin-4-ylpyrimidin-2-yl]phenyl]-3-(1,2,4-thiadiazol-5-yl)urea], the IC50 turned out to be 10.4 nM.
On the same count and under the same terms, the figure for `COc1ccc(NC(=O)Nc2ccc(-c3nc(N4CCOC[C@@H]4C)cc(C4(S(C)(=O)=O)CC4)n3)cc2)cc1` [Example 2t, 3-(4-methoxyphenyl)-1-[4-[4-[(3S)-3-methylmorpholin-4-yl]-6-(1-methylsulfonylcyclopropyl)pyrimidin-2-yl]phenyl]urea] is 0.656 nM.
For the molecule `Cc1csc(S(=O)(=O)C2(c3cc(N4CCOC[C@@H]4C)nc(-c4ccc(NC(=O)Nc5cnn(C)c5)cc4)n3)CC2)n1` [Example 25m, 1-[4-[4-[(3S)-3-methylmorpholin-4-yl]-6-[1-[(4-methyl-1,3-thiazol-2-yl)sulfonyl]cyclopropyl]pyrimidin-2-yl]phenyl]-3-(1-methylpyrazol-4-yl)urea], the IC50 is 0.25 nM.
On the same count and under the same terms, in the case of `C[C@H]1COCCN1c1cc(C2(S(=O)(=O)CCCO)CCC2)nc(-c2ccc(NC(=O)NC(C)(C)CO)cc2)n1` [Example 43p, 3-(1-hydroxy-2-methylpropan-2-yl)-1-[4-[4-[1-(3-hydroxypropylsulfonyl)cyclobu-tyl]-6-[(3S)-3-methylmorpholin-4-yl]pyrimidin-2-yl]phenyl]urea] it was 55.5 nM; in that of `CNC(=O)Nc1ccc(-c2nc(N3CCOCC3)cc(C3(S(=O)(=O)c4ccccc4)CC3)n2)cc1` [Example 36df, 3-[4-[4-[1-(benzenesulfonyl)cyclopropyl]-6-morpholin-4-ylpyrimidin-2-yl]phenyl]-1-methylurea], 7.12 nM; in that of `C[C@H]1COCCN1c1cc(C2(S(=O)(=O)c3ccc(Cl)cc3)CC2)nc(-c2ccc(NC(=O)Nc3ccccn3)cc2)n1` [Example 27b, 1-[4-[4-[1-(4-chlorophenyl)sulfonylcyclopropyl]-6-[(3S)-3-methylmorpholin-4-yl]pyrimidin-2-yl]phenyl]-3-pyridin-2-ylurea], 4.25 nM.
Still for that read-out and setting: the figure for `CNC(=O)Nc1ccc(-c2nc(N3CCOC[C@@H]3C)cc(C3(S(=O)(=O)c4cc(F)cc(F)c4)CC3)n2)cc1` [Example 19i, 1-[4-[4-[1-(3,5-difluorophenyl)sulfonylcyclopro-pyl]-6-[(3S)-3-methylmorpholin-4-yl]pyrimidin-2-yl]phenyl]-3-methylurea] is 1.52 nM; for `C[C@H]1COCCN1c1cc(C2(S(=O)(=O)c3ccccc3Cl)CC2)nc(-c2ccc(NC(=O)NCCO)cc2)n1` [Example 76c, 1-[4-[4-[1-(2-chlorophenyl)sulfonylcyclopropyl]-6-[(3S)-3-methylmorpholin-4-yl]pyrimidin-2-yl]phenyl]-3-(2-hydroxyethyl)urea] it is 3.19 nM.
With `C[C@H]1COCCN1c1cc(C2(S(=O)(=O)C3CC3)CCOCC2)nc(-c2ccc(NC(=O)NCCO)cc2)n1` [Example 23h, 1-[4-[4-(4-cyclopropylsulfonyloxan-4-yl)-6-[(3S)-3-methylmorpholin-4-yl]pyrimidin-2-yl]phenyl]-3-(2-hydroxyethyl)urea], the IC50 stood at 8.08 nM.
Consider `C[C@H]1COC[C@H](C)N1c1cc(C2(S(=O)(=O)C3CC3)CC2)nc(-c2ccc(NC(=O)NCCO)cc2)n1` [Example 92f, 1-[4-[4-(1-cyclopropylsulfonylcyclopropyl)-6-[(3S,5S)-3,5-dimethylmorpholin-4-yl]pyrimidin-2-yl]phenyl]-3-(2-hydroxyethyl)urea], for which the IC50 was 6.25 nM.
The same measure, in the same setting: the figure for `CCCNC(=O)Nc1ccc(-c2nc(N3CCOC[C@@H]3C)cc(C3(S(=O)(=O)CCCO)CCC3)n2)cc1` [Example 43k, 3-[4-[4-[1-(3-hydroxypropylsulfonyl)cyclobu-tyl]-6-[(3S)-3-methylmorpholin-4-yl]pyrimidin-2-yl]phenyl]-1-propylurea] is 25.7 nM.
Still for that read-out and setting: in the case of `C[C@H]1COCCN1c1cc(C2(S(=O)(=O)CCCO)CC2)nc(-c2ccc(NC(=O)Nc3nccs3)cc2)n1` [Example 36cj, 1-[4-[4-[1-(3-hydroxypropylsulfonyl)cyclopropyl]-6-[(3S)-3-methylmorpholin-4-yl]pyrimidin-2-yl]phenyl]-3-(1,3-thiazol-2-yl)urea] it was 3.33 nM; in that of `C[C@H]1COCCN1c1cc(C2(S(=O)(=O)CCCO)CCC2)nc(-c2ccc(NC(=O)NCC(F)F)cc2)n1` [Example 43o, 3-(2,2-difluoroethyl)-1-[4-[4-[1-(3-hydroxypropylsulfonyl)cyclobu-tyl]-6-[(3S)-3-methylmorpholin-4-yl]pyrimidin-2-yl]phenyl]urea], 15.7 nM.
For `Cc1nc(C)c(S(=O)(=O)C2(c3cc(N4CCOC[C@@H]4C)nc(-c4ccc(NC(=O)NCCO)cc4)n3)CC2)s1` [Example 78c, 1-[4-[4-[1-[(2,4-dimethyl-1,3-thiazol-5-yl)sulfonyl]cyclopropyl]-6-[(3S)-3-methylmorpholin-4-yl]pyrimidin-2-yl]phenyl]-3-(2-hydroxyethyl)urea], the IC50 was 20.9 nM.
Turning to `C[C@H]1COCCN1c1cc(C2(S(=O)(=O)c3c(F)cccc3F)CC2)nc(-c2ccc(NC(=O)NCCF)cc2)n1` [Example 86d, 1-[4-[4-[1-(2,6-difluorophenyl)sulfonylcyclopropyl]-6-[(3S)-3-methylmorpholin-4-yl]pyrimidin-2-yl]phenyl]-3-(2-fluoroethyl)urea], the IC50 amounted to 3.82 nM.

The values are drawn from patent publication US20090018134A1, “Compounds - 945” (AstraZeneca AB, priority 2007, published 2009).
